Experimental data: patent US9884839B2, “Inhibitors of 17Beta-hydroxysteroid dehydrogenases type 1 and type 2” (ElexoPharm GmbH, priority 2014, dated 2018)
Read-outs that look alike come from different tables or passages of the source.

Legend:
Assay type in all cases: biochemical
human 17β-HSD1 = target: T1, human 17β-HSD1 (Homo sapiens, UniProt P14061); experiment: Inhibition of human 17β-HSD1 (conversion of [3H]-E1 to E2, HPLC radioflow detection); conditions: for inhibition at 1 µM: read-out: % inhibition h17β-HSD1 @ 1 μM; for IC50: read-out: IC50 [nM] h17β-HSD1; for inhibition at 0.01 µM: read-out: % inhibition h17β-HSD1 @ 10 nM
T1 construct: For the partial purification of 17β-HSD1, the cytosolic fraction was precipitated with ammonium sulfate; from tissue; host or cells: human placenta, cytosolic fraction, ammonium sulfate precipitate
T1 sequence (P14061 1-328): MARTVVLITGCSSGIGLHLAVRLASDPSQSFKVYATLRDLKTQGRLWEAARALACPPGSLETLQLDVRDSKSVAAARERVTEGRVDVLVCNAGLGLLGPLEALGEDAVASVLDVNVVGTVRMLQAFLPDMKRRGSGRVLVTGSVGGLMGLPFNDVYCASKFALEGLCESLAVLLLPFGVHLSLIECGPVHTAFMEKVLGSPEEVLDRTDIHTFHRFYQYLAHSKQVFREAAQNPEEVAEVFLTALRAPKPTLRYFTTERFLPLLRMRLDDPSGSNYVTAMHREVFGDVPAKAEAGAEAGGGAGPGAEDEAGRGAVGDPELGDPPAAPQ

human 17β-HSD2 = target: T2, human 17β-HSD2 (Homo sapiens, UniProt P37059); experiment: Inhibition of human 17β-HSD2 (conversion of [3H]-E2 to E1); conditions: for IC50: read-out: IC50 [nM] h17β-HSD2; for inhibition at 0.01 µM: read-out: % inhibition h17β-HSD2 @ 10 nM
T2 construct: 17β-HSD2 was obtained from the microsomal fraction; from tissue; host or cells: human placenta, microsomal fraction
T2 sequence (P37059 1-387): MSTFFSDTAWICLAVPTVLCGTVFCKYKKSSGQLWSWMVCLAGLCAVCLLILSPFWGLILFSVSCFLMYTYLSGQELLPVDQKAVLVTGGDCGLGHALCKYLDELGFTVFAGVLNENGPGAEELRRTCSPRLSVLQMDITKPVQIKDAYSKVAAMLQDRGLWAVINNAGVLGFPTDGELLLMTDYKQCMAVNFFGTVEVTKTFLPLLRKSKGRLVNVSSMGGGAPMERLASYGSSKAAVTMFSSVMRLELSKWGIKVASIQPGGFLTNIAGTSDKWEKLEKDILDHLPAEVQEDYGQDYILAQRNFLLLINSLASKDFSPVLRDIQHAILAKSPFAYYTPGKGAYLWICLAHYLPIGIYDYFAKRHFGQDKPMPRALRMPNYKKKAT
Description: Fresh human placenta was homogenized, and cytosolic fraction and microsomes were separated by differential centrifugation at 1,000 g, 10,000 g and 150,000 g.
(§1) The conversion rate was calculated after analysis of the resulting chromatograms according to the following equation: % conversion=[% E1/(% E1+% E2)]×100

mouse 17β-HSD2 = target: T3, mouse 17β-HSD2 (Mus musculus, UniProt P51658); experiment: Inhibition of mouse 17β-HSD2 (liver microsomal fraction); conditions: for inhibition at 0.05 µM: read-out: % inhibition m17β-HSD2 @ 50 nM; for % inhibition m17β-HSD2 @ 50 nM: 0.05 µM
T3 construct: The pellet fractions containing the microsomal 17β-HSD2 were used for the determination of E1 formation; from tissue; host or cells: mouse liver, microsomal fraction
T3 sequence (P51658 1-381): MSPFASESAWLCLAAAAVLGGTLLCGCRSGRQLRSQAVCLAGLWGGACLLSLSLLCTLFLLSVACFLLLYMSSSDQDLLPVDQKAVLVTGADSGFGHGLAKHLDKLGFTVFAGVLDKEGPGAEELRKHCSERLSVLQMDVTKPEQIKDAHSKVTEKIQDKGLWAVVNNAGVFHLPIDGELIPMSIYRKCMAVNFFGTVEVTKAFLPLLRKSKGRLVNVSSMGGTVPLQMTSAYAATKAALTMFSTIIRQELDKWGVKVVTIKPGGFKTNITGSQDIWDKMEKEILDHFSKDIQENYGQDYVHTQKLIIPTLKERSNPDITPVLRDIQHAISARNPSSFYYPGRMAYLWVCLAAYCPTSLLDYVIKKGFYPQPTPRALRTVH
Description: Microsomal 17β-HSD2 fractions were obtained from mouse or rat liver. Fresh liver tissues were processed as described for the human placental 17β-HSD2 preparation. The pellet fractions containing the microsomal 17β-HSD2 were used for the determination of E1 formation.
as §1

[1] = human placental cytosolic enzyme, E1 500 nM, NADH, Tables 1, 4-11

inhibition at 0.01 µM (human 17β-HSD1) | inhibition at 0.01 µM (human 17β-HSD2) | inhibition at 0.05 µM (mouse 17β-HSD2) | Compound | also measured
 |  |  | O=C(c1cccc(O)c1)c1ccc(-c2ccc(F)cc2F)s1 [A, reference compound] | inhibition at 1 µM (human 17β-HSD1): 32%
 |  |  | O=C(c1ccc(-c2ccncc2)s1)c1c(F)ccc(O)c1F [Compound 8, (2,6-Difluoro-3-hydroxy-phenyl)-(5-pyridin-4-yl-thiophen-2-yl)-methanone] | inhibition at 1 µM (human 17β-HSD1): 27%; inhibition at 1 µM (human 17β-HSD2; read-out: % inhibition h17β-HSD2 @ 1 μM): 49%
 |  |  | CC(C)Oc1ccc(-c2ccc(C(=O)c3c(F)ccc(O)c3F)s2)cc1C#N [Compound 18, 5-[5-(2,6-Difluoro-3-hydroxy-benzoyl)-thiophen-2-yl]-2-isopropoxy-benzonitrile] | IC50 (human 17β-HSD1): 8 nM; IC50 (human 17β-HSD2): 19 nM
 |  |  | COc1c(C)cc(-c2ccc(C(=O)c3c(F)ccc(O)c3F)s2)cc1Cl [Compound 26, [5-(3-Chloro-4-methoxy-5-methyl-phenyl)-thiophen-2-yl]-(2,6-difluoro-3-hydroxy-phenyl)-methanone] | IC50 (human 17β-HSD1; [1]): 0.4 nM
 |  |  | Cc1cc(-c2ccc(C(=O)c3c(F)ccc(O)c3F)s2)cc(Cl)c1O [Compound 27, [5-(3-Chloro-4-hydroxy-5-methyl-phenyl)-thiophen-2-yl]-(2,6-difluoro-3-hydroxy-phenyl)-methanone] | IC50 (human 17β-HSD1): 0.2 nM
47% | 87% |  | COc1ccc(-c2ccc(C(=O)c3cc(F)c(F)c(O)c3F)s2)cc1 [Compound 51, (5-(4-Methoxyphenyl)thiophen-2-yl)(2,4,5-trifluoro-3-hydroxyphenyl)methanone] | 
75% | 47% | 15% | COc1cccc(-c2ccc(C(=O)c3cc(F)c(F)c(O)c3F)s2)c1 [Compound 52, (5-(3-Methoxyphenyl)thiophen-2-yl)(2,4,5-trifluoro-3-hydroxyphenyl)methanone] | 
81% | 96% | 34% | COc1ccccc1-c1ccc(C(=O)c2cc(F)c(F)c(O)c2F)s1 [Compound 53, (5-(2-Methoxyphenyl)thiophen-2-yl)(2,4,5-trifluoro-3-hydroxyphenyl)methanone] | 
31% | 89% | 30% | CC(=O)Nc1cccc(-c2ccc(C(=O)c3cc(F)c(F)c(O)c3F)s2)c1 [Compound 54, N-(3-(5-(2,4,5-Trifluoro-3-hydroxybenzoyl)thiophen-2-yl)phenyl)acetamide] | 
12% | 68% | 23% | Nc1ccccc1-c1ccc(C(=O)c2cc(F)c(F)c(O)c2F)s1 [Compound 55, (5-(2-Aminophenyl)thiophen-2-yl)(2,4,5-trifluoro-3-hydroxyphenyl)methanone] | 
71% | 93% |  | O=C(c1ccc(-c2ccccc2)s1)c1cc(F)c(F)c(O)c1F [Compound 56, (5-Phenylthiophen-2-yl)(2,4,5-trifluoro-3-hydroxyphenyl)methanone] | 
14% | 60% |  | Cc1ccc(-c2ccc(C(=O)c3cc(F)c(F)c(O)c3F)s2)cc1N [Compound 57, (5-(3-Amino-4-methylphenyl)thiophen-2-yl)(2,4,5-trifluoro-3-hydroxyphenyl)methanone] | 
48% | 68% | 27% | Nc1cc(-c2ccc(C(=O)c3cc(F)c(F)c(O)c3F)s2)ccc1O [Compound 59, (5-(3-Amino-4-hydroxyphenyl)thiophen-2-yl)(2,4,5-trifluoro-3-hydroxyphenyl)methanone] | 
13% | 51% | 23% | COc1ccc(-c2ccc(C(=O)c3cc(F)c(F)c(O)c3F)s2)cc1N [Compound 60, (5-(3-Amino-4-methoxyphenyl)thiophen-2-yl)(2,4,5-trifluoro-3-hydroxyphenyl)methanone] | 
48% | 68% | 60% | O=C(c1ccc(-c2ccc3[nH]ccc3c2)s1)c1cc(F)c(F)c(O)c1F [Compound 61, (5-(1H-Indol-5-yl)thiophen-2-yl)(2,4,5-trifluoro-3-hydroxyphenyl)methanone] | 
0% | 62% | 28% | CC(=O)Nc1ccc(-c2ccc(C(=O)c3cc(F)c(F)c(O)c3F)s2)cc1 [Compound 64, N-(4-(5-(2,4,5-trifluoro-3-hydroxybenzoyl)thiophen-2-yl)phenyl)acetamide] | 
15% | 62% |  | O=C(c1ccc(-c2cccnc2)s1)c1cc(F)c(F)c(O)c1F [Compound 65, (5-(Pyridin-3-yl)thiophen-2-yl)(2,4,5-trifluoro-3-hydroxyphenyl)methanone] | 
22% | 83% |  | O=C(c1ccc(-c2ccc3cccnc3c2)s1)c1cc(F)c(F)c(O)c1F [Compound 66, (5-(Quinolin-7-yl)thiophen-2-yl)(2,4,5-trifluoro-3-hydroxyphenyl)methanone] | 
30% | 86% |  | O=C(c1ccc(-c2ccc3[nH]cnc3c2)s1)c1cc(F)c(F)c(O)c1F [Compound 67, (5-(1H-Benzo[d]imidazol-5-yl)thiophen-2-yl)(2,4,5-trifluoro-3-hydroxyphenyl)methanone] | 
72% | 95% | 32% | O=C(c1ccc(-c2cccc(O)c2)s1)c1cc(F)c(F)c(O)c1F [Compound 69, (5-(3-Hydroxyphenyl)thiophen-2-yl)(2,4,5-trifluoro-3-hydroxyphenyl)methanone] | 
19% | 100% |  | O=C(c1ccc(-c2ccccc2O)s1)c1cc(F)c(F)c(O)c1F [Compound 70, (5-(2-Hydroxyphenyl)thiophen-2-yl)(2,4,5-trifluoro-3-hydroxyphenyl)methanone] | 
 |  | 79% | Cc1cc(-c2ccc(C(=O)c3cc(F)cc(O)c3C)s2)cc(C)c1O [Compound 71, (5-(4-Hydroxy-3,5-dimethylphenyl)thiophen-2-yl)(5-fluoro-3-hydroxy-2-methylphenyl)methanone] | IC50 (human 17β-HSD1; [1]): 12.6 nM; IC50 (human 17β-HSD2): 50 nM; % inhibition m17β-HSD2 @ 50 nM (mouse 17β-HSD2): 79% @ 50 nM
 |  | 22% | Cc1cc(-c2ccc(C(=O)c3cc(F)c(F)c(O)c3C)s2)cc(C)c1O [Compound 72, (4,5-Difluoro-3-hydroxy-2-methylphenyl)(5-(4-hydroxy-3,5-dimethylphenyl)thiophen-2-yl)methanone] | IC50 (human 17β-HSD1; [1]): 44 nM; IC50 (human 17β-HSD2): 159 nM; % inhibition m17β-HSD2 @ 50 nM (mouse 17β-HSD2): 22% @ 50 nM
 |  |  | Cc1ccc(C(=O)c2cc(F)c(F)c(O)c2F)s1 [Compound 73, (5-Methylthiophen-2-yl)(2,4,5-trifluoro-3-hydroxyphenyl)methanone] | inhibition at 0.1 µM (human 17β-HSD1; read-out: % inhibition h17β-HSD1 @ 100 nM, compound 100 nM): 9.1%
20% | 72% |  | NS(=O)(=O)Oc1ccc(-c2ccc(C(=O)c3cc(F)c(F)c(O)c3F)s2)cc1 [Compound 74, 4-(5-(2,4,5-Trifluoro-3-hydroxybenzoyl)thiophen-2-yl)phenyl sulfamate] | 
100% | 45% |  | COc1c(Cl)cc(-c2ccc(C(=O)c3c(Cl)ccc(O)c3F)s2)cc1Cl [Compound 77, (6-Chloro-2-fluoro-3-hydroxyphenyl)(5-(3,5-dichloro-4-methoxyphenyl)thiophen-2-yl)methanone] | 
 |  |  | Nc1cccc(-c2ccc(C(=O)c3cccc(O)c3)s2)c1 [F, reference compound] | inhibition at 1 µM (human 17β-HSD1): 77%; inhibition at 1 µM (human 17β-HSD2; read-out: IC50 [nM] or % inhibition h17β-HSD1 (second column so headed, Table 6): % @ 1 μM): 68%
